Assay results: PubChem BioAssay (NCI)
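Grown in 96-well plates, cells were treated for 48 hours with each compound at five concentrations. Insufficient inhibition: endpoint recorded as highest concentration tested. GI50 is the concentration that inhibits growth by half. At the TGI there is no net growth.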

Experiments:
Experiment in all cases: NCI tumour cell line growth inhibition, 48 h
[1] = tested on: SK-OV-3 ovarian
[2] = tested on: UACC-62 melanoma
[3] = tested on: TK-10 renal
[4] = tested on: EKVX NSCLC
[5] = tested on: MOLT-4 leukemia
[6] = tested on: SK-MEL-2 melanoma
[7] = tested on: UACC-257 melanoma
[8] = tested on: M14 melanoma
[9] = tested on: SW-620 colon
[10] = tested on: HOP-62 NSCLC
[11] = tested on: MDA-MB-435
[12] = tested on: HS 578T breast
[13] = tested on: KM12 colon
[14] = tested on: HCT-15 colon
[15] = tested on: HL-60(TB) leukemia
[16] = tested on: SF-295 CNS
[17] = tested on: NCI-H226 lung
[18] = tested on: SF-539 CNS
[19] = tested on: SK-MEL-28 melanoma
[20] = tested on: T-47D breast
[21] = tested on: K-562 leukemia
[22] = tested on: DU-145 prostate
[23] = tested on: A498 renal
[24] = tested on: NCI/ADR-RES ovarian
[25] = tested on: SF-268 CNS
[26] = tested on: A549 NSCLC
[27] = tested on: HCT-116 colon
[28] = tested on: SK-MEL-5 melanoma
[29] = tested on: SN12C renal
[30] = tested on: ACHN renal
[31] = tested on: NCI-H460 lung
[32] = tested on: SNB-75 CNS
[33] = tested on: CAKI-1 renal
[34] = tested on: OVCAR-5 ovarian
[35] = tested on: COLO 205 colon
[36] = tested on: NCI-H522 lung
[37] = tested on: OVCAR-4 ovarian
[38] = tested on: SR leukemia
[39] = tested on: 786-0 renal
[40] = tested on: MDA-MB-231 breast
[41] = tested on: CCRF-CEM leukemia
[42] = tested on: BT-549 breast
[43] = tested on: OVCAR-8 ovarian
[44] = tested on: RPMI-8226 leukemia
[45] = tested on: IGROV1 ovarian
[46] = tested on: MALME-3M melanoma
[47] = tested on: HOP-92 NSCLC
[48] = tested on: SNB-19 CNS
[49] = tested on: NCI-H23 lung
[50] = tested on: RXF 393 renal
[51] = tested on: U251 CNS

Work on `Cc1ccc(NC(=O)c2ccc(CN3CCN(C)CC3)c(C(F)(F)F)c2)cc1Oc1ccc(-c2[nH]nc3ncnc(N)c23)cc1` yielded a GI50 [1] of 23500 nM, a TGI [1] of 56500 nM and a GI50 [2] of 2020 nM. The TGI [2] was 4810 nM, the GI50 [3] was 32400 nM and the TGI [3] was 63300 nM. The GI50 [4] was 2010 nM, the TGI [4] was 4190 nM and the GI50 [5] was 2030 nM. It also gave a TGI [5] of 7310 nM, a GI50 [6] of 23200 nM and a TGI [6] of 81700 nM. For the same molecule, the GI50 [7] was 2510 nM, the TGI [7] was 5800 nM and the GI50 [8] was 1720 nM. It also gave a TGI [8] of 4280 nM, a GI50 [9] of 1970 nM and a TGI [9] of 3690 nM. The GI50 [10] was 2260 nM, the TGI [10] was 5140 nM and the GI50 [11] was 1610 nM. It also gave a TGI [11] of 3340 nM, a GI50 [12] of 4970 nM and a TGI [12] of 42800 nM. For the same molecule, the GI50 [13] was 1600 nM, the TGI [13] was 3670 nM and the GI50 [14] was 1570 nM. For the same molecule, the TGI [14] was 3290 nM, the GI50 [15] was 6420 nM and the TGI [15] was 78500 nM. The GI50 [16] was 8510 nM, the TGI [16] was 44100 nM and the GI50 [17] was 18000 nM. For the same molecule, the TGI [17] was 72900 nM, the GI50 [18] was 1160 nM and the TGI [18] was 2500 nM. The GI50 [19] was 1740 nM, the TGI [19] was 3390 nM and the GI50 [20] was 2610 nM. It also gave a TGI [20] of 7170 nM, a GI50 [21] of 713 nM and a TGI [21] of over 100000 nM. For the same molecule, the GI50 [22] was 1830 nM, the TGI [22] was 3470 nM and the GI50 [23] was 18400 nM. The TGI [23] was 42900 nM, the GI50 [24] was 3080 nM and the TGI [24] was 12900 nM. It also gave a GI50 [25] of 3770 nM, a TGI [25] of 30200 nM and a GI50 [26] of 2180 nM. For the same molecule, the TGI [26] was 5360 nM, the GI50 [27] was 1890 nM and the TGI [27] was 4350 nM. The GI50 [28] was 1670 nM, the TGI [28] was 3090 nM and the GI50 [29] was 3680 nM. It also gave a TGI [29] of 18700 nM, a GI50 [30] of 1730 nM and a TGI [30] of 3180 nM. It also gave a GI50 [31] of 1840 nM, a TGI [31] of 3590 nM and a GI50 [32] of 419 nM. It also gave a TGI [32] of 24000 nM, a GI50 [33] of 9050 nM and a TGI [33] of 29700 nM. For the same molecule, the GI50 [34] was 1970 nM, the TGI [34] was 3660 nM and the GI50 [35] was 7290 nM. The TGI [35] was 25200 nM, the GI50 [36] was 3040 nM and the TGI [36] was 9350 nM. The GI50 [37] was 18700 nM and the TGI [37] was 42000 nM.

With `N#Cc1cnc2ccc(-c3cnc4[nH]ncc4c3)cc2c1N1CCc2cc(F)c(Cl)cc21` the GI50 [1] was 214 nM, the TGI [1] was 591 nM and the GI50 [2] was 250 nM. It also gave a GI50 [3] of 275 nM, a TGI [3] of over 36200 nM and a GI50 [4] of 309 nM. For the same molecule, the TGI [4] was over 100000 nM, the GI50 [38] was 262 nM and the TGI [38] was over 100000 nM. It also gave a GI50 [39] of 370 nM, a TGI [39] of 5120 nM and a GI50 [40] of 302 nM. It also gave a TGI [40] of 6700 nM, a GI50 [6] of 222 nM and a TGI [6] of 518 nM. For the same molecule, the GI50 [41] was 355 nM, the TGI [41] was over 100000 nM and the GI50 [42] was 232 nM. It also gave a TGI [42] of 716 nM, a GI50 [7] of 312 nM and a TGI [7] of over 100000 nM. For the same molecule, the GI50 [8] was 322 nM, the TGI [8] was over 100000 nM and the GI50 [9] was 389 nM. The TGI [9] was over 100000 nM, the GI50 [10] was 255 nM and the TGI [10] was 1100 nM. For the same molecule, the GI50 [12] was 151 nM, the TGI [12] was 406 nM and the GI50 [13] was 400 nM. The TGI [13] was over 100000 nM, the GI50 [43] was 348 nM and the TGI [43] was over 100000 nM. The GI50 [44] was 402 nM, the TGI [44] was over 100000 nM and the GI50 [14] was 293 nM. The TGI [14] was over 100000 nM, the GI50 [16] was 206 nM and the TGI [16] was 599 nM. For the same molecule, the GI50 [18] was 230 nM, the TGI [18] was 564 nM and the GI50 [19] was 330 nM. It also gave a TGI [19] of over 100000 nM, a GI50 [20] of 214 nM and a TGI [20] of over 100000 nM. For the same molecule, the GI50 [21] was 360 nM, the TGI [21] was over 100000 nM and the GI50 [22] was 372 nM. It also gave a TGI [22] of over 100000 nM, a GI50 [45] of 177 nM and a TGI [45] of 544 nM. It also gave a GI50 [24] of 334 nM, a TGI [24] of over 100000 nM and a GI50 [25] of 296 nM. It also gave a GI50 [26] of 292 nM, a TGI [26] of over 100000 nM and a GI50 [46] of 232 nM. It also gave a TGI [46] of 648 nM, a GI50 [29] of 303 nM and a TGI [29] of over 100000 nM. For the same molecule, the GI50 [30] was 360 nM, the TGI [30] was over 100000 nM and the GI50 [31] was 327 nM. It also gave a TGI [31] of over 100000 nM, a GI50 [47] of 204 nM and a TGI [47] of 673 nM. For the same molecule, the GI50 [32] was 145 nM, the TGI [32] was 428 nM and the GI50 [33] was 250 nM. For the same molecule, the TGI [33] was over 100000 nM, the GI50 [48] was 399 nM and the TGI [48] was over 35400 nM. The GI50 [49] was 406 nM, the TGI [49] was over 100000 nM and the GI50 [50] was 171 nM. The TGI [50] was 599 nM, the GI50 [34] was 371 nM and the TGI [34] was over 100000 nM. The GI50 [36] was 254 nM, the TGI [36] was 725 nM and the GI50 [51] was 373 nM. For the same molecule, the TGI [51] was over 100000 nM.
